Assays:
sMMO = biological target: T1, sMMO (Methylosinus trichosporium, UniProt P27353); test: sMMO activity reactivity assay, inhibitor trials; type: cell-based, M. trichosporium OB3b
T1 construct: endogenous in cells; host or cells: M. trichosporium OB3b whole cells, grown without copper (chemostat or batch)
T1 sequence (P27353 1-526): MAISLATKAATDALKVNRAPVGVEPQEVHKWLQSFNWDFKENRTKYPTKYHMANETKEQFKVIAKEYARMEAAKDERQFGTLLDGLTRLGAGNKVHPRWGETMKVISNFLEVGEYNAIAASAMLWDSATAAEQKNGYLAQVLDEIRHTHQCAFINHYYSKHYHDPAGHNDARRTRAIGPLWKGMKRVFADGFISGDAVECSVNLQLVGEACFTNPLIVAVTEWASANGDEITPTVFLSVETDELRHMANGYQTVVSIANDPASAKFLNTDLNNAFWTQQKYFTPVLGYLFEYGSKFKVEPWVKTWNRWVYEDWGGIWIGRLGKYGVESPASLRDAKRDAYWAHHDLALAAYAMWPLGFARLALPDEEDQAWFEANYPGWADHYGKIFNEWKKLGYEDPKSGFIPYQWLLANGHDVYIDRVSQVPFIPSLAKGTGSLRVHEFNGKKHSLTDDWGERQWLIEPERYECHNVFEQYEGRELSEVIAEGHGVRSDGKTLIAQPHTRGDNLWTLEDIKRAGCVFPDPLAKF
T1 sequence (P27354 1-394 partner): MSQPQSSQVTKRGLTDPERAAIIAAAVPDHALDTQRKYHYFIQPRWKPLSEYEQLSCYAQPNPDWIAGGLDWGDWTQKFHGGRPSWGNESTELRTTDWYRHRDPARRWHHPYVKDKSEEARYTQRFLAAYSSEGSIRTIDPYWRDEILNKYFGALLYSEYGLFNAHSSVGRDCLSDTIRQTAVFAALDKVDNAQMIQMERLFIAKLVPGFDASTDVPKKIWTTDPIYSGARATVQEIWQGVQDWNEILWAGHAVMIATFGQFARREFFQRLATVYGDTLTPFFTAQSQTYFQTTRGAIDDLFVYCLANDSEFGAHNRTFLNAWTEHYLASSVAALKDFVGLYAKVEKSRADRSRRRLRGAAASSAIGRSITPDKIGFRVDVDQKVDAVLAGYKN
T1 sequence (P27355 1-169 partner): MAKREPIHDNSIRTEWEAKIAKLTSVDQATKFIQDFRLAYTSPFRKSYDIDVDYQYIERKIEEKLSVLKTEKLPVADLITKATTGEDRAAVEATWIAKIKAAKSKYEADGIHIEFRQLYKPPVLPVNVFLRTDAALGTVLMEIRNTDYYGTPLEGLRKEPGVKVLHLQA
Experimental: M. trichosporium OB3b cultures were grown under plus copper (pMMO expressed) or minus copper (sMMO expressed) conditions using chemostat or batch culture conditions. Aliquots of culture (˜100 ml) were harvested by centrifugation, and concentrated 50-fold in fresh media. Pelleting cells in this manner ensured that all residual methane was eliminated, increased ease of measuring protein, and made activity assays as brief as possible. Assays were performed in 30 ml crimp cap reaction vials with 4 ml of media (either +Cu or −Cu) with 10 mM sodium formate. To initiate assays, 100 µl of the 50× cell suspension was added to reaction vials with a plastic syringe. Short descriptions of activity assays follow.
Due to the relative insolubility of methane, large volumes should be added to reaction vials to achieve concentrations in the aqueous phase (Cw) above the concentration of methane where the velocity of methane consumption (V) is equal to 0.5Vmax for minus copper grown M. trichosporium OB3b cultures. These large methane additions make direct measurement of methane consumption in short-term assays unlikely, therefore the accumulation of ethylene oxide (ETO) upon the oxidation of ethylene (ETH) was used as a surrogate measurement. Reaction vials were prepared as described above and 5 ml of ETH added as an overpressure. The appearance of ETO was monitored by gas chromatography evaluation of Cw over the course of 30 minutes (FIG. 39A). Killed cells (boiled) served as a negative control. pMMO is a copper enzyme and can be inhibited by allylthiourea (ATU), while sMMO (an iron enzyme) is insensitive to inhibition by ATU. The ETH to ETO assay described above was repeated with 10 μM ATU to discriminate between sMMO and pMMO activity.
(§1) Metabolic activity test methods have been developed to monitor specific activities in M. trichosporium OB3b cultures. A naphthalene oxidation assay was used to determine if sMMO is being expressed. An ethylene to ethylene oxide reaction assay and a methane oxidation assay was used to quantify MMO activity, and a methanol oxidation assay was used to estimate MDH activity. Concurrent batch metabolic tests can be conducted to investigate methanol inhibition of methane oxidation, cyclopropane to cyclopropanol conversion and concurrent/subsequent cyclopropanol inhibition of MDH activity, the effect of cyclopropanol inhibition on growth yield, and the effects of high oxygen concentration. Once stable operation and baseline metabolic monitoring in the chemostat have been achieved, inhibitor can be added to evaluate chemostat operation under methanol-producing conditions.
MMO activity has been measured via both methane (CH4) consumption and ethylene oxide (ETO) production upon oxidation of the non-growth substrate ethylene (ETH, Table 4). While ETO production matches methane consumption for pMMO, ETH is not as good a substrate for sMMO as methane. Nevertheless, the ETO accumulation assay is quick (<30 min) and can be used to screen for activity before starting a larger experiment.
(§2) The effect of salts NaCl, NH4Cl and CaCl2 on MMO and MDH activity was evaluated using the reactivity assays described above.

MDH = MDH activity reactivity assay (methanol SOUR), inhibitor trials; type: cell-based, M. trichosporium OB3b
Experimental: The procedure for measuring methanol dehydrogenase (MDH) activity by measuring the specific oxygen uptake rate (SOUR) has been tested on M. trichosporium OB3b cultures grown both in batch and in the chemostat. M. trichosporium OB3b cells were harvested using centrifugation. The supernatant was poured off and the cells were re-suspended in fresh media lacking a carbon source. Phosphate buffer solution was added to a sample chamber in which dissolved oxygen (DO) was measure with a DO probe. When the DO of the solution stabilized, the re-suspended cells were added to the sample chamber to measure baseline oxygen uptake by the cells without a carbon food source present. Methanol was then added to test for MDH activity. The difference in the oxygen uptake rates illustrates the MDH activity of the culture.
as §1, with “concentration.” for “concentration. Once stable operation and baseline metabolic monitoring in the chemostat have been achieved, inhibitor can be added to evaluate chemostat operation under methanol-producing conditions.”
as §2

C1CC1 [CP, cyclopropane]
Fraction of Activity Remaining, sMMO (sMMO; CP 03 μmol): 0.9 | Fraction of Activity Remaining, sMMO (sMMO; CP 32 μmol): 0.9 | Fraction of Activity Remaining, sMMO (sMMO; CP 64 μmol): 0.8 | Fraction of Activity Remaining, MDH (MDH; CP 03 μmol): 0.9 | Fraction of Activity Remaining, MDH (MDH; CP 32 μmol): 0.2 | Fraction of Activity Remaining, MDH (MDH; CP 64 μmol): 0.1

Source: patent US20180258381A1, “BIO-LAMINA BIOREACTORS AND METHODS OF MAKING AND USING THE SAME” (Oregon State University, priority 2015, published 2018)
